The text below walks through data of patent US11912693B2, “Compounds for modulating S1P1 activity and methods of using the same” (TREVENA, INC., priority 2017, dated 2024).

In experiment [1] the target is T1, human sphingosine-1-phosphate receptor 1 (S1P1) (Homo sapiens (Human), UniProt P21453). Description: Inhibition of cAMP production (HTRF cAMP HiRange), S1P1 CHO-K1 cells. Type of experiment: cell-based. The conditions noted are these: for Emax: CHO-K1, efficacy (SPAN) normalized to fingolimod, read-out: hS1P1 cAMP SPAN; for hS1P1 cAMP pEC50: inhibition of cAMP production, S1P1 CHO-K1 cells. A digest of the protocol:
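CHO-K1 cells stably co-expressing human S1P1 (C-terminal Prolink tag) and EA-β-arrestin2 were grown in AssayComplete Media 6 at 37° C. and 5% CO2, plated, and incubated overnight. Agonist-driven inhibition of intracellular cAMP was read by TR-FRET with the HTRF cAMP HiRange kit on a PheraStar reader. Potency is pEC50, and efficacy (SPAN) is normalized to fingolimod.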
Target sequence in this assay (P21453 whole entry, looked up): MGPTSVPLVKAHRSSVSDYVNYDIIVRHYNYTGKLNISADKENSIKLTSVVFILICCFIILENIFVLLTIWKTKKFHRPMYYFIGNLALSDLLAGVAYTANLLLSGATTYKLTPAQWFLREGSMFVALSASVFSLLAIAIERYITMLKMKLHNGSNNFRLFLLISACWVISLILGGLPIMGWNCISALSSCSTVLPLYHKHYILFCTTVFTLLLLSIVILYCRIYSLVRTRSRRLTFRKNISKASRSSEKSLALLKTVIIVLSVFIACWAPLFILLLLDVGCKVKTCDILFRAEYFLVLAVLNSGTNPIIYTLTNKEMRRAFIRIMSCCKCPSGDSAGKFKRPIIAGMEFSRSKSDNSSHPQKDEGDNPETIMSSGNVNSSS

Experiment [2] has as its target T1, human sphingosine-1-phosphate receptor 1 (S1P1). Description: β-Arrestin2 recruitment assay (PathHunter), S1P1 CHO-K1 cells. Type of experiment: cell-based. The note with it: for Emax: CHO-K1, efficacy (SPAN) normalized to fingolimod, read-out: hS1P1 B-arrestin2 SPAN; for hS1P1 B-arrestin2 pEC50: β-arrestin2 recruitment, S1P1 CHO-K1 cells. The method in brief:
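Enzyme-fragment complementation read-out: agonist-driven β-arrestin2 binding to ProLink-tagged human S1P1 in stable CHO-K1 cells restores β-galactosidase, measured 1 h at room temperature after a 60 min 37° C. compound incubation. Potency as pEC50, efficacy relative to fingolimod (SPAN).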
Target sequence in this assay (P21453 whole entry, looked up): as above
Target sequence in this assay (P32121 whole entry partner, looked up): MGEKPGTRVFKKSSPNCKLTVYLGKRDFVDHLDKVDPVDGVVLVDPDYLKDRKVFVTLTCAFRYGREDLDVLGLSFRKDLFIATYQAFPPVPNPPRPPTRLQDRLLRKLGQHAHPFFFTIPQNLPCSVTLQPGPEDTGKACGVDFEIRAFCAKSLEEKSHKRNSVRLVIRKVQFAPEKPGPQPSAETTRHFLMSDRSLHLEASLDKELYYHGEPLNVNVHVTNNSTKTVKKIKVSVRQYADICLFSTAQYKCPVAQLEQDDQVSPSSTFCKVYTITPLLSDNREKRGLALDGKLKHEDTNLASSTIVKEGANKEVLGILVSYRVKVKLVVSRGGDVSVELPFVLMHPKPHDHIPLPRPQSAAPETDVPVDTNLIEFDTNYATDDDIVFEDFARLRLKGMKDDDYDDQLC

With `CCC1(CC)CC(=O)c2cc(-c3nc(-c4ccc(NC)cc4)no3)ccc2O1` [Compound 153, 2,2-diethyl-6-(3-(4-(methylamino)phenyl)-1,2,4-oxadiazol-5-yl)chroman-4-one], in experiment [1], the Emax was > 75% and the “hS1P1 cAMP pEC50” value is recorded as <6.5. For the same compound, in experiment [2], the Emax was < 75% and the “hS1P1 B-arrestin2 pEC50” value is >5.
On to `CC(C)Cn1nnc2cc(-c3nc4c(Cl)cccc4o3)ccc21` [Compound 453, 4-chloro-2-(1-isobutyl-1H-benzo[d][1,2,3]triazol-5-yl)benzo[d]oxazole], for which the “hS1P1 cAMP pEC50” value in experiment [1] was >6.5. Also, in experiment [2], the “hS1P1 B-arrestin2 pEC50” value is >5.
Turning to `CC(C)Nc1ccc(-c2ccc(-c3ccc4c(c3)nnn4C(C)C)cc2)cc1C#N` [Compound 507, 4′-(1-isopropyl-1H-benzo[d][1,2,3]triazol-5-yl)-4-(isopropylamino)-[1,1′-biphenyl]-3-carbonitrile], in experiment [1], the Emax is < 75% and the “hS1P1 cAMP pEC50” value was >6.5. In experiment [2], the Emax was < 75% and the “hS1P1 B-arrestin2 pEC50” value is <5.
As to `COc1cccc(-c2csc(-c3ccc4c(ccn4C(C)C)n3)n2)c1` [Compound 410, 2-(1-isopropylpyrrolo[3,2-b]pyridin-5-yl)-4-(3-methoxyphenyl)thiazole], the “hS1P1 cAMP pEC50” value in experiment [1] is given as <6.5. Besides, in experiment [2], the “hS1P1 B-arrestin2 pEC50” value is reported as <5.
`CC(C)n1ccc2cc(-c3nc(-c4ccccc4F)cs3)cnc21` [Compound 402, 4-(2-fluorophenyl)-2-(1-isopropyl-1H-pyrrolo[2,3-b]pyridin-5-yl)thiazole]: the “hS1P1 cAMP pEC50” value in experiment [1] was >6.5. Moreover, the “hS1P1 B-arrestin2 pEC50” value in experiment [2] was <5.
Taken in the same sequence, the figures for `CCC1(CC)CC(=O)c2cc(-c3nc(-c4ncccn4)no3)ccc2O1` [Compound 640, 2,2-diethyl-6-(3-(pyrimidin-2-yl)-1,2,4-oxadiazol-5-yl)chroman-4-one] were <6.5 and <5.
For `COc1ccccc1-c1noc(-c2cnc3c(c2)nnn3C(C)C)n1` [Compound 383, 3-(2-methoxyphenyl)-5-[3-(propan-2-yl)-3H-[1,2,3]triazolo[4,5-b]pyridin-6-yl]-1,2,4-oxadiazole], in experiment [1], the “hS1P1 cAMP pEC50” value is reported as >6.5. Besides, the “hS1P1 B-arrestin2 pEC50” value in experiment [2] is given as >5.
Taken in the same sequence, the figures for `CCC1(CC)CC(=O)c2cc(-c3nc(-c4ccccc4OC)no3)ccc2O1` [Compound 268, 2,2-diethyl-6-[3-(2-methoxyphenyl)-1,2,4-oxadiazol-5-yl]chroman-4-one] were >6.5 and >5.
Consider `C=CCn1nc2ccc(-c3nc(-c4ccccc4)no3)cc2n1` [Compound 39, 5-(3-phenyl-1,2,4-oxadiazol-5-yl)-2-(prop-2-en-1-yl)-2H-1,2,3-benzotriazole], for which the “hS1P1 cAMP pEC50” value in experiment [1] was <6.5. The “hS1P1 B-arrestin2 pEC50” value in experiment [2] was <5.
Turning to `O=C1CCOc2ccc(-c3nc(-c4ccncc4)no3)cc21` [Compound 57, 6-[3-(pyridin-4-yl)-1,2,4-oxadiazol-5-yl]-3,4-dihydro-2H-1-benzopyran-4-one], the “hS1P1 cAMP pEC50” value in experiment [1] was <6.5. For the same compound, the “hS1P1 B-arrestin2 pEC50” value in experiment [2] is on record as <5.
Take `Cc1cnccc1-c1noc(-c2ccc3c(c2)nnn3CC(C)(C)O)n1` [Compound 597, 2-methyl-1-{5-[3-(3-methylpyridin-4-yl)-1,2,4-oxadiazol-5-yl]-1H-1,2,3-benzotriazol-1-yl}propan-2-ol]: the “hS1P1 cAMP pEC50” value in experiment [1] was >6.5. Also, the “hS1P1 B-arrestin2 pEC50” value in experiment [2] is given as >5.
Consider `CC(C)n1nnc2cc(-c3nc(-c4ccc(OCc5ccccc5)c(C(F)(F)F)c4)no3)ccc21` [Compound 296, 5-{3-[4-(benzyloxy)-3-(trifluoromethyl)phenyl]-1,2,4-oxadiazol-5-yl}-1-(propan-2-yl)-1H-1,2,3-benzotriazole], for which, in experiment [1], the Emax is < 75% and the “hS1P1 cAMP pEC50” value is <6.5. In experiment [2], the Emax is < 75% and the “hS1P1 B-arrestin2 pEC50” value is reported as <5.
With `COc1ccccc1-c1nc(-c2ccc3c(ccn3C(C)C)c2)ns1` [Compound 375, 5-[5-(2-methoxyphenyl)-1,2,4-thiadiazol-3-yl]-1-(propan-2-yl)-1H-indole], in experiment [1], the “hS1P1 cAMP pEC50” value is reported as >6.5. In experiment [2], the “hS1P1 B-arrestin2 pEC50” value is listed as >5.
Taken in the same sequence, the figures for `C=CCn1nnc2cc(-c3nc(-c4ccccc4)no3)ccc21` [Compound 270, 5-(3-phenyl-1,2,4-oxadiazol-5-yl)-1-(prop-2-en-1-yl)-1H-1,2,3-benzotriazole] were <6.5 and <5.
On to `CC(C)(CO)n1nnc2cc(-c3noc(-c4cccnc4F)n3)ccc21` [Compound 643, 2-(5-(5-(2-fluoropyridin-3-yl)-1,2,4-oxadiazol-3-yl)-1H-benzo[d][1,2,3]triazol-1-yl)-2-methylpropan-1-ol], for which, in experiment [1], the Emax was > 75% and the “hS1P1 cAMP pEC50” value is <6.5. In experiment [2], the Emax is < 75% and the “hS1P1 B-arrestin2 pEC50” value is reported as <5.
Taken in the same sequence, the figures for `CCC1(CC)CC(=O)c2cc(-c3nc(-c4ccccc4C)no3)ccc2O1` [Compound 66, 2,2-diethyl-6-(3-(o-tolyl)-1,2,4-oxadiazol-5-yl)chroman-4-one] were > 75%, >6.5, > 75% and >5.
On the same counts, the results for `COc1cccc(F)c1-c1noc(-c2ccc3c(cnn3C(C)C)c2)n1` [Compound 338, 3-(2-fluoro-6-methoxy-phenyl)-5-(1-isopropylindazol-5-yl)-1,2,4-oxadiazole] are > 75%, <6.5, > 75% and <5.
For `CCC1(CC)CC(=O)c2cc(-c3nc(-c4cncnc4)no3)ccc2O1` [Compound 620, 2,2-diethyl-6-(3-(pyrimidin-5-yl)-1,2,4-oxadiazol-5-yl)chroman-4-one], in experiment [1], the “hS1P1 cAMP pEC50” value is recorded as >6.5. Also, in experiment [2], the “hS1P1 B-arrestin2 pEC50” value is >5.
As for `Cc1ccsc1-c1noc(-c2ccc3c(c2)nnn3C2CCCC2)n1` [Compound 46, 1-cyclopentyl-5-[3-(3-methylthiophen-2-yl)-1,2,4-oxadiazol-5-yl]-1H-1,2,3-benzotriazole], the “hS1P1 cAMP pEC50” value in experiment [1] is >6.5. In experiment [2], the “hS1P1 B-arrestin2 pEC50” value is >5.
As for `CC(C)n1nnc2cc(-c3noc(-c4ccc(C5CCCCC5)cc4)n3)ccc21` [Compound 290, 5-(4-cyclohexylphenyl)-3-(1-isopropyl-1H-benzo[d][1,2,3]triazol-5-yl)-1,2,4-oxadiazole], in experiment [1], the Emax is < 75% and the “hS1P1 cAMP pEC50” value was <6.5. Besides, in experiment [2], the Emax is < 75% and the “hS1P1 B-arrestin2 pEC50” value was <5.
Take `Cc1cccc2oc(-c3ccc4c(c3)nnn4C(C)C)nc12` [Compound 418, 2-(1-isopropyl-1H-benzo[d][1,2,3]triazol-5-yl)-4-methylbenzo[d]oxazole]: in experiment [1], the Emax is > 75% and the “hS1P1 cAMP pEC50” value is on record as >6.5. Also, in experiment [2], the Emax was > 75% and the “hS1P1 B-arrestin2 pEC50” value is given as >5.
In the case of `COc1ccccc1-c1noc(-c2ccc3c(ccn3C(C)C)c2)n1` [Compound 372, 5-(1-isopropyl-1H-indol-5-yl)-3-(2-methoxyphenyl)-1,2,4-oxadiazole], the “hS1P1 cAMP pEC50” value in experiment [1] is >6.5. In addition, the “hS1P1 B-arrestin2 pEC50” value in experiment [2] was >5.
